# Measurements: US9980943B2, “Methods of treating muscular dystrophy” (BOARD OF REGENTS OF THE NEVADA SYSTEM OF HIGHER EDUCATION, …, priority 2013, dated 2018)
# How the values were obtained:
# Assay type in all cases: cell-based, mouse
# [1] = test system: α7 integrin (LacZ reporter in α7+/LacZ myotubes); test: Myotube α7 integrin FDG assay (Burkin assay in myotubes, 96-well); conditions: myotubes
# [2] = test system: β-galactosidase in CMV-LacZ C2C12 myotubes; test: CMV-LacZ secondary screen in C2C12 myotubes (β-Gal stabilizing assay); conditions: C2C12 CMV-LacZ myotubes, fold relative to DMSO
# Method in brief: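 First, C2C12 myoblasts were transfected with a linearized CMV-LACZ vector and clonal lines selected by FDG β-gal assay. Then cells were exposed to compounds at 0.5, 1, 5, 10, 20 and 40 μM in 96-well format, two replicates each, and β-gal measured.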
# [3] = test system: β-galactosidase in CMV-LacZ C2C12 myoblasts; test: CMV-LacZ secondary screen in C2C12 myoblasts (β-Gal stabilizing assay); conditions: CMV-LacZ C2C12 myoblasts
# Excerpt: In order to determine compounds that acted to stabilize β-gal in myogenic cells, a CMV-LacZ C2C12 cell line was used in a secondary screen. The EGFP gene from the pEGFP (Clontech) vector was replaced by LACZ PCR product with digests of the vector/PCR product performed using EcoRI (NEB) and NotI (NEB) and ligated using T4 DNA Ligase (NEB) following standard procedures to produce the CMV-LACZ vector. The LACZ gene was generated by PCR from the pBK-RSV (Stratagene) vector using primers LACZ EcoRI F- and LACZ NotI R-. The CMV-LACZ vector was then digested with AfIII (NEB) to linearize the construct, which was then transfected in C2C12 myoblasts using Lipofectamine 2000 (Invitrogen) following the manufacturer's instructions. […] Clonal lines were selected and screened for βgal levels using the myoblast FDG assay.
# The assays were used the original 96-well format and new dose-response curves for myoblasts (N=3-6 replicates for each data point), myotubes (N=3-6 replicates for data point), and CMV-LacZ secondary assay (N=2 replicates for each data point) using concentrations of 0.5 μM, 1 μM, 5 μM, 10 μM, 20 μM, and 40 μM (Tables 9-16).
# [4] = test system: α7 integrin (LacZ reporter in α7βgal+/− myoblasts); test: Myoblast α7+/LacZ integrin FDG assay (Burkin assay in myoblasts, 96-well); conditions: α7+/LacZ myoblasts, 96-well
SMILES,"Burkin Assay in Myotubes, α7 integrin LacZ reporter signal relative to DMSO ([1]; 0.5 uM)","Burkin Assay in Myotubes, α7 integrin LacZ reporter signal relative to DMSO ([1]; 1 uM)","Burkin Assay in Myotubes, α7 integrin LacZ reporter signal relative to DMSO ([1]; 5 uM)","Burkin Assay in Myotubes, α7 integrin LacZ reporter signal relative to DMSO ([1]; 10 uM)","Burkin Assay in Myotubes, α7 integrin LacZ reporter signal relative to DMSO ([1]; 20 uM)","Burkin Assay in Myotubes, α7 integrin LacZ reporter signal relative to DMSO ([1]; 40 uM)","CMV-LACZ in Myotubes, signal relative to DMSO ([2]; 0.5 uM)","CMV-LACZ in Myotubes, signal relative to DMSO ([2]; 1 uM)","CMV-LACZ in Myotubes, signal relative to DMSO ([2]; 5 uM)","CMV-LACZ in Myotubes, signal relative to DMSO ([2]; 10 uM)","CMV-LACZ in Myotubes, signal relative to DMSO ([2]; 20 uM)","CMV-LACZ in Myotubes, signal relative to DMSO ([2]; 40 uM)",CMV-LACZ in Myoblasts (β-galactosidase activity relative to DMSO) ([3]; 0.5 uM),CMV-LACZ in Myoblasts (β-galactosidase activity relative to DMSO) ([3]; 1 uM),CMV-LACZ in Myoblasts (β-galactosidase activity relative to DMSO) ([3]; 5 uM),CMV-LACZ in Myoblasts (β-galactosidase activity relative to DMSO) ([3]; 10 uM),CMV-LACZ in Myoblasts (β-galactosidase activity relative to DMSO) ([3]; 20 uM),CMV-LACZ in Myoblasts (β-galactosidase activity relative to DMSO) ([3]; 40 uM),"Burkin Assay in Myoblasts, signal relative to DMSO ([4]; 0.5 uM)","Burkin Assay in Myoblasts, signal relative to DMSO ([4]; 1 uM)",other results
O=C(NCc1ccccc1)c1csc(-c2cccnc2)n1 [MLS000860966-01],0.9275,0.8211,1.1137,1.107,1.06,0.8927,0.8229,1.0743,0.9632,0.8601,0.9190,0.7920,0.9370,1.0900,0.7918,0.8424,0.6232,0.7600,0.8092,0.9506,"Burkin Assay in Myoblasts, signal relative to DMSO ([4]; 5 uM): 1.225; Burkin Assay in Myoblasts, signal relative to DMSO ([4]; 10 uM): 1.126; Burkin Assay in Myoblasts, signal relative to DMSO ([4]; 20 uM): 1.242; Burkin Assay in Myoblasts, signal relative to DMSO ([4]; 40 uM): 1.117"
O=C(CCc1ccccc1)c1nnc(-c2ccccc2)o1 [MLS001004364-01],1.093,1.105,0.9047,0.8617,0.8875,1.055,0.9210,1.0095,0.8978,0.9480,1.2824,1.1824,0.9117,1.0643,1.0438,0.9011,1.0263,1.0441,1.0917,1.105,"Burkin Assay in Myoblasts, signal relative to DMSO ([4]; 5 uM): 1.035; Burkin Assay in Myoblasts, signal relative to DMSO ([4]; 10 uM): 0.9531; Burkin Assay in Myoblasts, signal relative to DMSO ([4]; 20 uM): 0.9729; Burkin Assay in Myoblasts, signal relative to DMSO ([4]; 40 uM): 0.9374"
Cc1cccc(Cn2cnc3c(nnn3Cc3ccc(Cl)cc3)c2=O)c1 [MLS000092785-01],1.027,0.9662,1.02,0.8586,0.8293,0.8225,0.9105,1.0143,1.0185,1.0738,1.0400,1.0500,0.8600,1.1653,0.9882,0.7351,1.1004,0.3235,0.9544,1.035,"Burkin Assay in Myoblasts, signal relative to DMSO ([4]; 5 uM): 1.1703; Burkin Assay in Myoblasts, signal relative to DMSO ([4]; 10 uM): 0.9343; Burkin Assay in Myoblasts, signal relative to DMSO ([4]; 20 uM): 0.7833; Burkin Assay in Myoblasts, signal relative to DMSO ([4]; 40 uM): 0.6509"
CCOc1ccccc1NC(=O)COC(=O)CNS(=O)(=O)c1ccc(C)cc1 [MLS000393567-01],0.8882,0.9953,0.9065,0.8857,0.8607,0.9237,1.0400,0.9524,0.9322,0.9858,1.0160,0.9100,1.2117,1.1373,0.6593,0.8148,1.0175,1.1319,1.032,1.051,"Burkin Assay in Myoblasts, signal relative to DMSO ([4]; 5 uM): 0.9724; Burkin Assay in Myoblasts, signal relative to DMSO ([4]; 10 uM): 0.9325; Burkin Assay in Myoblasts, signal relative to DMSO ([4]; 20 uM): 0.8334; Burkin Assay in Myoblasts, signal relative to DMSO ([4]; 40 uM): 0.8705"
CCCCNc1nnc(Cc2ccc(Cl)cc2)c(=O)[nH]1 [MLS001215795-01],1.291,1.191,0.863,0.9107,0.9147,0.8873,0.9363,1.0207,0.9309,1.0250,1.3929,1.1035,0.8003,1.1375,1.0974,0.8628,0.8196,0.8256,1.143,1.207,"Burkin Assay in Myoblasts, signal relative to DMSO ([4]; 5 uM): 0.932; Burkin Assay in Myoblasts, signal relative to DMSO ([4]; 10 uM): 0.7776; Burkin Assay in Myoblasts, signal relative to DMSO ([4]; 20 uM): 0.741; Burkin Assay in Myoblasts, signal relative to DMSO ([4]; 40 uM): 0.7187"
CC(=O)C1=C(C)Nc2ncnn2C1c1ccc(C)cc1 (stereo not drawn) [MLS001197779-01],1.038,0.961,1.102,0.9249,0.8237,0.913,1.1286,1.1705,1.0456,1.0983,1.0630,1.0540,0.8987,1.2563,0.7604,0.6490,0.9846,1.1267,0.9161,1.0032,"Burkin Assay in Myoblasts, signal relative to DMSO ([4]; 5 uM): 1.281; Burkin Assay in Myoblasts, signal relative to DMSO ([4]; 10 uM): 0.9869; Burkin Assay in Myoblasts, signal relative to DMSO ([4]; 20 uM): 0.8467; Burkin Assay in Myoblasts, signal relative to DMSO ([4]; 40 uM): 0.753"
